Assay results reported in patent publication US4247712A, “Preservation of aqueous systems with 2-chloro-3-oxobutyramide derivatives” (Givaudan Corporation, priority 1979, dated 1981).
Values after ≈ are worked out from the molar mass of the structure shown. Like-named read-outs stand apart in the source and are kept apart here.

Legend:
Assay type in all cases: cell-based
[1] = system: Aspergillus niger; test: General antimicrobial activity, 5-fold serial dilution test in agar (MIC); conditions: 168 h, 28° C., seven days, growth only at lower concentration of range, read-out: minimum inhibitory concentration (MIC), F1
Method: (§1) General antibacterial and antifungal activity was evaluated by a 5-fold serial dilution test in agar. In this test, compounds were prepared as 6% solutions in dimethylformamide or ethanol. The 6% solution was then 5-fold serially diluted in test tubes to give the desired concentrations when mixed with agar and poured into sterile Petri dishes. Tryptone glucose extract agar was used for the bacterial testing; mildew glucose agar for the fungal testing. The bacterial plates were spot inoculated with 24-hour nutrient broth cultures and incubated at 37° C. for 48 hours. The fungal plates were spot inoculated with spore suspensions and incubated at 28° C. for seven days. At the end of the incubation periods, all plates were examined for growth. The minimum inhibitory concentration (MIC) for each organism is expressed in Table I. In the ranges presented, growth is observed only at the lower concentration.
(§2) The activity is presented in Tabular Form (Table I) using the following key.

[2] = system: Aspergillus oryzae; test: as above; conditions: 168 h, 28° C., seven days, growth only at lower concentration of range, read-out: minimum inhibitory concentration (MIC), F2
Method: as §1, §2

[3] = system: Aureobasidium pullulans; test: as above; conditions: 168 h, 28° C., seven days, growth only at lower concentration of range, read-out: minimum inhibitory concentration (MIC), F4
Method: as §1, §2

[4] = system: Bacillus subtilis; test: as above; conditions: 37° C., 48 hours, growth only at lower concentration of range, read-out: minimum inhibitory concentration (MIC), B5
Method: as §1, §2

[5] = system: Escherichia coli; test: as above; conditions: 37° C., 48 hours, growth only at lower concentration of range, read-out: minimum inhibitory concentration (MIC), B2
Method: as §1, §2

[6] = system: Penicillium piscarium; test: as above; conditions: 168 h, 28° C., seven days, growth only at lower concentration of range, read-out: minimum inhibitory concentration (MIC), F3
Method: as §1, §2

[7] = system: Proteus vulgaris; test: as above; conditions: 37° C., 48 hours, growth only at lower concentration of range, read-out: minimum inhibitory concentration (MIC), B4
Method: as §1, §2

[8] = system: Pseudomonas aeruginosa; test: as above; conditions: 37° C., 48 hours, growth only at lower concentration of range, read-out: minimum inhibitory concentration (MIC), B3
Method: as §1, §2

[9] = system: Staphylococcus aureus; test: as above; conditions: 37° C., 48 hours, growth only at lower concentration of range, read-out: minimum inhibitory concentration (MIC), B1
Method: as §1, §2

[10] = system: Aspergillus niger; test: Utility as a cosmetic preservative (cosmetic lotion); conditions: weekly reinoculation
Method: (§3) The 2-Chloro-3-oxobutyramide derivatives are effective cosmetic preservatives. Two-fold serial dilutions of 6% solutions of the 2-haloacetoacetic acid derivatives in dimethylformamide were added to a cosmetic lotion of the following formulation: |Stearic acid 1.4 g |Arlacel 60 (sorbitan |monostearate) 0.7 g |Tween 20 Polyoxethylene |(20) sorbitan |monostearate 1.6 g |Distilled water 94.0 g The lotions were inoculated with both Pseudomonas aeruginosa and Aspergillus niger and incubated at 28° C. At weekly intervals, the lotions were examined for microorganisms by conventional streak-plate methods or by macroscopic observation. The lotions were then reinoculated with the test organisms and reincubated.

[11] = system: Pseudomonas aeruginosa; test: as above; conditions: weekly reinoculation
Method: as §3

[12] = system: Pseudomonas aeruginosa; test: Utility in water and oil emulsions (3.3% cutting oil emulsions); conditions: 28° C., weekly reinoculation, read-out: Minimum Inhibitory Concentration Range
Method: The utility of the 2-chloro-3-oxobutyramide derivatives in water and oil emulsions is illustrated below using a commercially available cutting oil. In running these tests, two-fold serial dilutions of 6% solutions of the compound in dimethylformamide was added to 3.3% cutting oil emulsions. The emulsions were prepared by diluting with water a commercially available cutting oil concentrate. The emulsions were inoculated with a culture of Pseudomonas aeruginosa and incubated at 28° C. on a rotary shaker. At weekly intervals, the emulsions were examined for bacteria by conventional streak-plate methods. The emulsions were then reinoculated with Pseudomonas aeruginosa and reincubated. […] indicate the activity range for that compound.

[13] = system: broad spectrum of microorganisms including gram positive bacteria, gram negative bacteria and molds; test: Antimicrobial activity, general statement in the text
[14] = system: A. niger; test: Effectiveness as slimicide for pulp and paper mill water systems; conditions: range: growth at lower, none at higher, 62.5 = lowest concentration tested, no growth at it
Method: (§4) Various quantities of a 6% solution of this compound in dimethylformamide were incorporated into 24 ml of a test substrate composed as follows: 84.4 g Whatman No. 2 powdered cellulose 2.6 g Sodium nitrate 1.0 g Calcium sulfate 6.5 g Maltose 1.0 g Nutrient Broth, Difco 10.0 ml Mersize Rm […] (Monsanto) 2.5 ml 2% Alum 900 ml Distilled water The samples were inoculated with four different organisms and incubated at 28° C. At weekly intervals the samples were examined for the presence of microbial growth and reinoculated during a total incubation period of four weeks.

[15] = system: E. aerogenes; test: as above; conditions: Klebsiella aerogenes, range: growth at lower, read-out: Effectiveness as slimicide (inhibitory concentration range)
Method: as §4

[16] = system: P. aeruginosa; test: as above; conditions: 62.5 = lowest concentration tested, no growth at it
Method: as §4

[17] = system: P. piscarium; test: as above; conditions: read-out: Effectiveness as slimicide (inhibitory concentration range)
Method: as §4

[18] = Week 1, 3.3% cutting oil emulsion
[19] = Week 2, 3.3% cutting oil emulsion
[20] = Week 3, 3.3% cutting oil emulsion
[21] = Week 4, 3.3% cutting oil emulsion

CC(=O)C(Cl)C(=O)N(C)C (centres unmarked) [R1=CH3, R2=CH3, 2-chloro-N,N-dimethyl-3-oxobutyramide]
MIC [1]: 384 to 1920 µg/mL (≈ 2350 to 11700 µM)
MIC [2]: 384 to 1920 µg/mL (≈ 2350 to 11700 µM)
MIC [3]: 76.8 to 384 µg/mL (≈ 469 to 2350 µM)
MIC [4]: 384 to 1920 µg/mL (≈ 2350 to 11700 µM)
MIC [5]: 76.8 to 384 µg/mL (≈ 469 to 2350 µM)
MIC [6]: 384 to 1920 µg/mL (≈ 2350 to 11700 µM)
MIC [7]: 76.8 to 384 µg/mL (≈ 469 to 2350 µM)
MIC [8]: 384 to 1920 µg/mL (≈ 2350 to 11700 µM)
MIC [9]: 384 to 1920 µg/mL (≈ 2350 to 11700 µM)
minimum inhibitory concentration effective in preventing microbial growth ([10]; Week 1, 28° C.): 1 (1000-2000 mcg/gm)
minimum inhibitory concentration effective in preventing microbial growth ([10]; Week 2, 28° C.): 1 (1000-2000 mcg/gm)
minimum inhibitory concentration effective in preventing microbial growth ([10]; Week 3, 28° C.): 1 (1000-2000 mcg/gm)
minimum inhibitory concentration effective in preventing microbial growth ([10]; Week 4, 28° C.): 1 (1000-2000 mcg/gm)
minimum inhibitory concentration effective in preventing microbial growth ([11]; Week 1, 28° C.): 2 (500-1000 mcg/gm)
minimum inhibitory concentration effective in preventing microbial growth ([11]; Week 2, 28° C.): 2 (500-1000 mcg/gm)
minimum inhibitory concentration effective in preventing microbial growth ([11]; Week 3, 28° C.): 2 (500-1000 mcg/gm)
minimum inhibitory concentration effective in preventing microbial growth ([11]; Week 4, 28° C.): 2 (500-1000 mcg/gm)
MIC [12, 18]: 125 to 500 µg/mL (≈ 764 to 3060 µM)
MIC [12, 19]: 250 to 500 µg/mL (≈ 1530 to 3060 µM)
MIC [12, 20]: 250 to 500 µg/mL (≈ 1530 to 3060 µM)
MIC [12, 21]: 250 to 500 µg/mL (≈ 1530 to 3060 µM)
antimicrobial activity (in words) [13]: high level of activity

CC(=O)NC(=O)C(Cl)C(C)=O (centres unmarked) [N-Acetyl-2-Chloro-3-oxobutyramide, N-Acetyl-2-chloro-3-oxobutyramide]
MIC [1]: 76.8 to 384 µg/mL (≈ 432 to 2160 µM)
MIC [2]: 76.8 to 384 µg/mL (≈ 432 to 2160 µM)
MIC [3]: 76.8 to 384 µg/mL (≈ 432 to 2160 µM)
MIC [4]: 76.8 to 384 µg/mL (≈ 432 to 2160 µM)
MIC [5]: 15.3 to 76.8 µg/mL (≈ 86.2 to 432 µM)
MIC [6]: 76.8 to 384 µg/mL (≈ 432 to 2160 µM)
MIC [7]: 76.8 to 384 µg/mL (≈ 432 to 2160 µM)
MIC [8]: 15.3 to 76.8 µg/mL (≈ 86.2 to 432 µM)
MIC [9]: 76.8 to 384 µg/mL (≈ 432 to 2160 µM)
minimum inhibitory concentration effective in preventing microbial growth ([10]; Week 1, 28° C.): 5 (63-125 mcg/gm)
minimum inhibitory concentration effective in preventing microbial growth ([10]; Week 2, 28° C.): 4 (125-250 mcg/gm)
minimum inhibitory concentration effective in preventing microbial growth ([10]; Week 3, 28° C.): 3 (250-500 mcg/gm)
minimum inhibitory concentration effective in preventing microbial growth ([10]; Week 4, 28° C.): 2 (500-1000 mcg/gm)
minimum inhibitory concentration effective in preventing microbial growth ([11]; Week 1, 28° C.): 5 (63-125 mcg/gm)
minimum inhibitory concentration effective in preventing microbial growth ([11]; Week 2, 28° C.): 5 (63-125 mcg/gm)
minimum inhibitory concentration effective in preventing microbial growth ([11]; Week 3, 28° C.): 4 (125-250 mcg/gm)
minimum inhibitory concentration effective in preventing microbial growth ([11]; Week 4, 28° C.): 4 (125-250 mcg/gm)
MIC [12, 18]: 32 to 63 µg/mL (≈ 180 to 355 µM)
MIC [12, 19]: 63 to 125 µg/mL (≈ 355 to 704 µM)
MIC [12, 20]: 125 to 500 µg/mL (≈ 704 to 2820 µM)
MIC [12, 21]: 125 to 500 µg/mL (≈ 704 to 2820 µM)
MIC ([14]; Aspergillus niger, week 1, 28° C., read-out: Effectiveness as slimicide (inhibitory concentration range)): 62.5 to 125 µg/mL (≈ 352 to 704 µM)
Effectiveness as slimicide (inhibitory concentration range) ([14]; week 2, 28° C.): 62.5 to 125 µg/mL
Effectiveness as slimicide (inhibitory concentration range) ([14]; week 3, 28° C.): 62.5 to 125 µg/mL
Effectiveness as slimicide (inhibitory concentration range) ([14]; week 4, 28° C.): 62.5 to 125 µg/mL
MIC ([15]; week 1, 28° C., none at higher, 62.5 = lowest concentration tested, no growth at it): 62.5 to 125 µg/mL (≈ 352 to 704 µM)
MIC ([15]; week 2, 28° C., none at higher, 62.5 = lowest concentration tested, no growth at it): 125 to 250 µg/mL (≈ 704 to 1410 µM)
MIC ([15]; week 3, 28° C., none at higher concentration): 250 to 500 µg/mL (≈ 1410 to 2820 µM)
MIC ([15]; week 4, 28° C., none at higher concentration): 250 to 500 µg/mL (≈ 1410 to 2820 µM)
MIC ([16]; Pseudomonas aeruginosa, week 1, 28° C., read-out: Effectiveness as slimicide (inhibitory concentration range)): 62.5 µg/mL (≈ 352 µM)
Effectiveness as slimicide (inhibitory concentration range) ([16]; week 2, 28° C.): 62.5 µg/mL
Effectiveness as slimicide (inhibitory concentration range) ([16]; week 3, 28° C.): 62.5 µg/mL
Effectiveness as slimicide (inhibitory concentration range) ([16]; week 4, 28° C.): 62.5 µg/mL
MIC ([17]; week 1, 28° C., 62.5 = lowest concentration tested, no growth at it): 62.5 µg/mL (≈ 352 µM)
MIC ([17]; week 2, 28° C., range: growth at lower, none at higher concentration): 62.5 to 125 µg/mL (≈ 352 to 704 µM)
MIC ([17]; week 3, 28° C., range: growth at lower, none at higher concentration): 62.5 to 125 µg/mL (≈ 352 to 704 µM)
MIC ([17]; week 4, 28° C., range: growth at lower, none at higher concentration): 62.5 to 125 µg/mL (≈ 352 to 704 µM)
